The subject of data set [1] is LPS-induced TNF-α production from human PBMC. The data set is described as follows: LPS-induced TNF-α production from human PBMC. It is filed as cell-based. Particulars: LPS 100 ng/ml, 18-20 hours, ELISA. As for the experimental part:
Lipopolysaccharide (LPS) is an endotoxin produced by gram-negative bacteria such as E. coli which induces production of many pro-inflammatory cytokines, including TNF-α In peripheral blood mononuclear cells (PBMC), the TNF-α produced in response to LPS is derived from monocytes, which comprise approximately 5-20% of the total PBMC. Compounds were tested for the ability to inhibit LPS-induced TNF-α production from human PBMC as previously described (Muller et al. 1996, J. Med Chem. 39:3238). PBMC from normal donors were obtained by Ficoll Hypaque (Pharmacia, Piscataway, N.J., USA) density centrifugation. Cells were cultured in RPMI (Life Technologies, Grand Island, N.Y., USA) supplemented with 10% AB± human serum (Gemini Bio-products, Woodland, Calif., USA), 2 mM L-glutamine, 100 U/ml penicillin, and 100 μg/ml streptomycin (Life Technologies).
PBMC (2×10^5 cells) were plated in 96-well flat-bottom Costar tissue culture plates (Coming, N.Y., USA) in triplicate. Cells were stimulated with LPS (Sigma, St. Louis, Mo., USA) at 100 ng/ml in the absence or presence of compounds. Compounds (Celgene Corp., Warren, N.J., USA) were dissolved in DMSO (Sigma) and further dilutions were done in culture medium immediately before use. The final DMSO concentration in all samples was 0.25%. Compounds were added to cells 1 hour before LPS stimulation. […]
A general note: In an ELISA, binding on a coated surface is turned into a signal by an enzyme label.

Data set [2] has as its system IL-1β-induced TNF-α production from human PBMC. The data set is described as follows: IL-1β-induced TNF-α production from human PBMC. The format is cell-based. Particulars: recombinant human IL-1β 50 ng/ml, 18 hours. As for the experimental part: During the course of inflammatory diseases, TNF-α production is often stimulated by the cytokine IL-1β, rather than by bacterially derived LPS. Compounds are tested for the ability to inhibit EL-1β-induced TNF-α production from human PBMC as described above for LPS-induced TNF-α production, except that the PBMC are isolated from source leukocyte units (Sera-Tec Biologicals, North Brunswick, N.J., USA) by centrifugation on Ficoll-Paque Plus (Amersham Pharmacia, Piscataway, N.J., USA), plated in 96-well tissue culture plates at 3×10^5 cells/well in RPMI-1640 medium (BioWhittaker, Walkersville, Md., USA) containing 10% heat-inactivated fetal bovine serum (Hyclone), 2 mM L-glutamine, 100 U/ml penicillin, and […] (complete medium), pretreated with compounds at 10, 2, 0.4, 0.08, 0.016, 0.0032, 0.00064, and 0 μM in duplicate at a final DMSO concentration of 0.1% at 37° C. in a humidified incubator at 5% CO2 for 1 hour, then stimulated with 50 ng/ml recombinant human IL-1β (Endogen) for 18 hours.

Data set [3] has as its system PDE4 enzyme purified from U937 human monocytic cells. Put plainly: PDE4 inhibition (enzyme purified from U937 cells). The format is biochemical. As to conditions: 1 μM cAMP, 30 min at 30° C. The procedure: PDE4 enzyme was purified from U937 human monocytic cells by gel filtration chromatography as previously described (Muller et al. 1998, Bioorg. & Med Chem Lett 8:2669-2674). Phosphodiesterase reactions were carried out in 50 mM Tris HCl pH 7.5, 5 mM MgCl2, 1 μM cAMP, 10 nM [^311)-cAMP for 30 min at 30° C., terminated by boiling, treated with 1 mg/ml snake venom, and separated using AG-IXS ion exchange resin (BioRad) as described (Muller et al. 1998, Bioorg. & Med Chem Lett 8:2669-2674). Reactions consumed less than 15% of available substrate.

The test system of a further data set is bovine PDE1. Put plainly: PDE selectivity, single concentration, PDE1. Particulars: for PDE Specificity Ratio PDE1/PDE4: from above data. It is filed as biochemical. The procedure: (§1) The specificity of compounds for specific PDE's was assessed by testing at a single concentration (100 μM) against bovine PDE1, human PDE2, PDE3, and PDE5 from human platelets (Hidaka and Asano 1976, Biochem. Biophys. Acta 429:485, and Nicholsen et al. 1991, Trends Pharmaco. Sci. 12:19).

Data set [4] has as its system PDE3 from human platelets. Put plainly: PDE selectivity, single concentration, PDE3. As to conditions: for PDE Specificity Ratio PDE3/PDE4: from above data. It is filed as biochemical. The procedure:
as §1

The target in data set [5] is T1, PDE5 from human platelets (Homo sapiens, UniProt O76074).
T1 construct: PDE3, and PDE5 from human platelets; from tissue; host or cells: human platelets
Put plainly: PDE selectivity, single concentration, PDE5. It is filed as biochemical. Particulars: for PDE Specificity Ratio PDE5/PDE4: from above data; for inhibition at 100 µM: read-out: PDE5 (% inhib at 100 μM). The procedure:
as §1

Data set [6] is described as follows: Pharmacokinetics after oral administration in female rats. Particulars: rat, in vivo, 80 mg/kg oral in aqueous CMC. The text has this: Table III presents plasma concentration data (ng/mL) taken at 0.5 hr., 1 hr., 2 hrs., 4 hrs., 7 hrs., 10 hrs. and 24 hrs. following the administration, Cmax, Tmax and AUC.
In a further data set the target is human PDE2 (Homo sapiens, UniProt O00408). The data set is described as follows: PDE selectivity, single concentration, PDE2. The format is biochemical. As for the experimental part: as §1
Chain of human PDE2 (O00408 whole entry): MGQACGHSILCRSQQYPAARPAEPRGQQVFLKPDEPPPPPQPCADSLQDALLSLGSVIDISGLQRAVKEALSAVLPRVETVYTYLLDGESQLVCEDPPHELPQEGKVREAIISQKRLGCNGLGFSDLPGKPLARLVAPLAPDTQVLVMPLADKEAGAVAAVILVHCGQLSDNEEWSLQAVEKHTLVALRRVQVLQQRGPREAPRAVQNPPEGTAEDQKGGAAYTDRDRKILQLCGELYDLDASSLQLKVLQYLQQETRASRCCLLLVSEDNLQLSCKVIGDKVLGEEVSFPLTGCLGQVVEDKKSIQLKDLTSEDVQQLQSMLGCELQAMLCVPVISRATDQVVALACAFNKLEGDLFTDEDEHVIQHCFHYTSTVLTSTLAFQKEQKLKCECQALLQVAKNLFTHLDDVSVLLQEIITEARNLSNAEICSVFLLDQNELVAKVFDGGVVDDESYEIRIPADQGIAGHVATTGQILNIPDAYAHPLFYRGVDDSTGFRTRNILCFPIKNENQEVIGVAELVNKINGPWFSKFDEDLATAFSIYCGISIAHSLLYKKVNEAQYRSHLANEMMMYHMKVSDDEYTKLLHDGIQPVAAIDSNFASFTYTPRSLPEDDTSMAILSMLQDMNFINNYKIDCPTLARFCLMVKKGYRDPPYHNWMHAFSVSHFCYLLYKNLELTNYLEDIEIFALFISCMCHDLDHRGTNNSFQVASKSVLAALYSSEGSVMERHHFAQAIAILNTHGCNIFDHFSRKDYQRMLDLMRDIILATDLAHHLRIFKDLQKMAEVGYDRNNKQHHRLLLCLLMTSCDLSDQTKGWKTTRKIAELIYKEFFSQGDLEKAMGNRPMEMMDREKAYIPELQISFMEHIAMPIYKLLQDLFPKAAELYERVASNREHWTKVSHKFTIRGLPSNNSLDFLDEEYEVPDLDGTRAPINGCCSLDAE

These results are taken from US20040167199A1, “Methods of using and compositions comprising (-)-3-(3,4-dimethoxy-phenyl)-3-(1-oxo-1,3-dihydro-isoindol-2-yl)-propionamide” (Celgene Corporation, priority 2002, published 2004).

Usually IC50 stands for the concentration that gives 50% inhibition. The term AUC denotes the area under the concentration-time curve, a measure of exposure. The Cmax is the highest concentration seen after dosing. Broadly, the Tmax is the time from dosing to the highest level. As to `COc1ccc(C(CC(N)=O)N2Cc3ccccc3C2=O)cc1OC` (racemic) [Racemic Compound, 3-(3,4-dimethoxy-phenyl)-3-(1-oxo-1,3-dihydro-isoindol-2-yl)-propionamide], the IC50 in data set [1] came out at 21 µM. Moreover, the half-inhibitory concentration (IC50) in data set [2] worked out at 16 µM. Further, the half-inhibitory concentration (IC50) in data set [3] was 15 µM. Besides, in the data set with bovine PDE1, the “PDE1 (% inhib at 100 μM)” value turned out to be 20% and the “PDE Specificity Ratio PDE1/PDE4” value is recorded as more than 4.8 fold. In data set [4], the “PDE3 (% inhib at 100 μM)” value is 51% and the “PDE Specificity Ratio PDE3/PDE4” value was “˜4.8 fold”. In addition, in data set [5], the “PDE Specificity Ratio PDE5/PDE4” value is on record as more than 4.8 fold and the inhibition at 100 µM worked out at 14%. Also, the concentration at 0 h in data set [6] (0 hour, read-out: plasma concentration) was found to be 0 ng/mL. Further, in data set [6], the AUC was 44200 ng·h/mL, the peak concentration (Cmax) was 4910 ng/mL and the time to peak (Tmax) was determined as 2 h. The concentration at 0.5 h in data set [6] (0.5 hour, read-out: plasma concentration) is 3900 ng/mL. Besides, the concentration at 1 h in data set [6] (1 hour, read-out: plasma concentration) was determined as 4600 ng/mL. Moreover, the concentration at 2 h in data set [6] (2 hours, read-out: plasma concentration) is 4120 ng/mL. In data set [6] (4 hours, read-out: plasma concentration), the concentration at 4 h turned out to be 2980 ng/mL. Further, the concentration at 7 h in data set [6] (7 hours, read-out: plasma concentration) stood at 2520 ng/mL. The concentration at 10 h in data set [6] (10 hours, read-out: plasma concentration) was found to be 2060 ng/mL. Besides, the concentration at 24 h in data set [6] (24 hours, read-out: plasma concentration) is 9.2 ng/mL.

On to `COc1ccc(C(CC(N)=O)N2Cc3ccccc3C2=O)cc1OC` (single isomer, unassigned; (+)) [Compound B, (+)-3-(3,4-dimethoxy-phenyl)-3-(1-oxo-1,3-dihydro-isoindol-2-yl)-propionamide], for which the IC50 in data set [1] came out at 100 µM. The IC50 in data set [2] is 86 µM. In data set [3], this molecule came in with an IC50 of 67 µM. In the data set with bovine PDE1, the “PDE1 (% inhib at 100 μM)” value was found to be 47% and the “PDE Specificity Ratio PDE1/PDE4” value is given as “˜1 fold”. The “PDE Specificity Ratio PDE2/PDE4” value on human PDE2 (from above data) is more than 1 fold. In addition, the inhibition at 100 µM at human PDE2 (read-out: PDE2 (% inhib at 100 μM)) came out at 22%. Besides, in data set [4], the “PDE3 (% inhib at 100 μM)” value is given as 50% and the “PDE Specificity Ratio PDE3/PDE4” value is on record as “˜1 fold”. In data set [5], the “PDE Specificity Ratio PDE5/PDE4” value is more than 1 fold and the inhibition at 100 µM worked out at 5%.
